In ChEMBL document CHEMBL4665775, “Half-life extension of peptidic APJ agonists by N-terminal lipid conjugation” (Bioorg Med Chem Lett, 2020):
The source made the active and inactive calls. The calls are words filed in the database; no cut-off is given here.

Tests used:
[1] = test system: Rattus norvegicus; assay: Positive […] activity in anesthetized Lewis rat model of myocardial infarction assessed as plasma concentration for maximal pharmacodynamic effect at 1 mg/kg/min, iv administered as continuous infusion for 20 mins; assay type: functional
[2] = test system: Rattus norvegicus; assay: Positive […] activity in anesthetized Lewis rat model of myocardial infarction assessed as increase in ejection fraction at 1 mg/kg/min, iv administered as continuous infusion for 20 mins; assay type: functional
[3] = Unbound Cmax in rat at 0.5 mg/kg, sc at 15 mins; assay type: ADME, organism-based; settings: in vivo, 0.25 h
[4] = Terminal half life in rat at 0.1 mg/kg, iv for 30 mins; assay type: ADME, organism-based; settings: in vivo, read-out: beta t1/2
[5] = test system: Rattus norvegicus; assay: Positive […] activity in anesthetized Lewis rat model of myocardial infarction assessed as increase in ejection fraction at 3.7 ug/kg/min, iv administered as infusion for 30 mins; assay type: functional, organism-based; settings: dose 3.7 µg/kg/min
[6] = test system: Rattus norvegicus; assay: Agonist activity at APJ receptor in anesthetized Lewis rat model of myocardial infarction assessed as target coverage at 3.7 ug/kg/min, iv administered as continuous infusion for 30 mins; assay type: functional, organism-based; settings: dose 3.7 µg/kg/min
[7] = Agonist activity at APJ receptor in anesthetized Lewis rat model of myocardial infarction assessed as target coverage at 30 ug/kg/min iv administered as continuous infusion for 30 mins relative to control; assay type: functional; settings: dose 30 µg/kg/min, 0.5 h
[8] = Agonist activity at APJ receptor in anesthetized Lewis rat model of myocardial infarction assessed as target coverage at 10 ug/kg/min iv administered as continuous infusion for 30 mins relative to control; assay type: functional; settings: dose 10 µg/kg/min, 0.5 h
[9] = Unbound fraction in anesthetized Lewis rat myocardial infarction model plasma assessed as free plasma concentration at 30 ug/kg/min, iv administered as continuous infusion for 30 mins; assay type: ADME, organism-based; settings: in vivo, 0.03 mg/kg, 0.5 h, dose 30 µg/kg/min
[10] = Unbound fraction in anesthetized Lewis rat myocardial infarction model plasma assessed as free plasma concentration at 10 ug/kg/min, iv administered as continuous infusion for 30 mins; assay type: ADME, organism-based; settings: in vivo, 0.01 mg/kg, 0.5 h, dose 10 µg/kg/min
[11] = Unbound fraction in anesthetized Lewis rat myocardial infarction model plasma assessed as free plasma concentration at 3.7 ug/kg/min, iv administered as continuous infusion for 30 mins; assay type: ADME, organism-based; settings: in vivo, 0.0037 mg/kg, 0.5 h, dose 3.7 µg/kg/min
[12] = test system: Rattus norvegicus; assay: Positive […] activity in anesthetized Lewis rat model of myocardial infarction assessed as increase in ejection fraction at 30 ug/kg/min, iv administered as infusion for 30 mins; assay type: functional; settings: dose 30 µg/kg/min, 0.5 h
[13] = test system: Rattus norvegicus; assay: Positive […] activity in anesthetized Lewis rat model of myocardial infarction assessed as increase in ejection fraction at 10 ug/kg/min, iv administered as continuous infusion for 30 mins; assay type: functional; settings: dose 10 µg/kg/min, 0.5 h
[14] = target: T1, Apelin receptor (Rattus norvegicus, UniProt Q9JHG3); assay: Agonist activity at rat APJ receptor stably expressed in CHO cell membranes in presence of [35S]GTPgammaS by scintillation proximity assay; assay type: functional
T1 sequence (Q9JHG3 whole entry): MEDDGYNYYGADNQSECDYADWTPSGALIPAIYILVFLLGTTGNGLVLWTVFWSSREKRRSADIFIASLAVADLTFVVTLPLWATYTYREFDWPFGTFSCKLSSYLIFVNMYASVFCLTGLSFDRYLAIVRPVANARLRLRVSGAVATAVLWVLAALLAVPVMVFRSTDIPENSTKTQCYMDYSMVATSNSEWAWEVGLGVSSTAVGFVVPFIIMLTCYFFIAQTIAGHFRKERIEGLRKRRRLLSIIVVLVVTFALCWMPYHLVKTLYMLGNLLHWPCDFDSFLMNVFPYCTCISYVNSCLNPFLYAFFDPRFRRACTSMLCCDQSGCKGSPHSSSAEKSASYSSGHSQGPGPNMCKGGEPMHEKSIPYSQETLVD

[15] = Stability in rat plasma assessed as compound remaining at 4 hrs; assay type: ADME, cell-free; settings: read-out: Stabilty
[16] = Stability in rat liver S9 fraction assessed as compound remaining at 4 hrs; assay type: ADME, subcellular; settings: read-out: Stabilty
[17] = Stability in rat Kidney S9 fraction assessed as compound remaining at 4 hrs; assay type: ADME, subcellular; settings: read-out: Stabilty
[18] = Plasma protein binding in rat assessed as unbound fraction by LC-MS/MS analysis; assay type: ADME, cell-free

Row | fCmax [3] [nM] | half-life [4] [min] | Activity [6] | Cp(f) [9] [nM] | Cp(f) [10] [nM] | Cp(f) [11] [nM] | EC50 [14] [nM] | remaining at 4 h [15] [%] | remaining at 4 h [16] [%] | remaining at 4 h [17] [%] | fraction unbound [18] | SMILES | MPE [1] [µM] | Activity [2] [%] | Activity [5] | fold change (FC) [7] | fold change (FC) [8] | Activity [12] [%] | Activity [13] [%]
1 | – | – | – | – | – | – | – | – | – | – | – | CSCC[C@H](NC(=O)[C@@H]1CCCN1C(=O)CNC(=O)[C@H](CCCCN)NC(=O)[C@H](Cc1cnc[nH]1)NC(=O)[C@H](CO)NC(=O)[C@H](CC(C)C)NC(=O)[C@H](CCCNC(=N)N)NC(=O)[C@@H]1CCCN1C(=O)[C@H](CCCNC(=N)N)NC(=O)[C@@H]1CCC(=O)N1)C(=O)N1CCC[C@H]1C(=O)N[C@@H](Cc1ccccc1)C(=O)O | 16.4 | 16.6 | – | – | – | – | –
2 | 0.3 | 4.3 | inactive | 29 | 12 | 3 | 4.6 | 51 | > 90 | 82 | 0.011 | CCCCCCCCCCCCC(=O)N[C@@H](CCC(=O)NCCOCCOCC(=O)NCCOCCOCC(=O)N[C@@H](CCC(N)=O)C(=O)N[C@@H](CCCNC(=N)N)C(=O)N1CCC[C@H]1C(=O)N[C@@H](CCCNC(=N)N)C(=O)N[C@@H](CC(C)C)C(=O)N[C@@H](CO)C(=O)N[C@@H](Cc1c[nH]cn1)C(=O)N[C@@H](CCCCN)C(=O)NCC(=O)N1CCC[C@H]1C(=O)N[C@@H](CCSC)C(=O)N1CCC[C@H]1C(=O)N[C@@H](Cc1ccccc1)C(=O)O)C(=O)O | – | – | inactive | 6.3 | 2.7 | 6.1 | 22.8
